Experimental data published in US8648086B2, “5,6-bicyclic heteroaryl-containing urea compounds as kinase inhibitors” (Ascepion Pharmaceuticals, Inc., priority 2009, dated 2014).
Counter-ions that a name gives are not always drawn.

Tests used:
VEGFR2 = molecular target: T1, VEGFR2 (Homo sapiens, UniProt P35968); assay: VEGFR2 cell-based assay (phospho-VEGFR2 ELISA, transfected CHO cells); settings: compound at 100 nM, read-out: % VEGFR2 kinase activity remains
T1 construct: expressed in transfected cells; host or cells: CHO cells, pcDNA3.1 plasmid
T1 sequence (P35968 20-1356, species assumed): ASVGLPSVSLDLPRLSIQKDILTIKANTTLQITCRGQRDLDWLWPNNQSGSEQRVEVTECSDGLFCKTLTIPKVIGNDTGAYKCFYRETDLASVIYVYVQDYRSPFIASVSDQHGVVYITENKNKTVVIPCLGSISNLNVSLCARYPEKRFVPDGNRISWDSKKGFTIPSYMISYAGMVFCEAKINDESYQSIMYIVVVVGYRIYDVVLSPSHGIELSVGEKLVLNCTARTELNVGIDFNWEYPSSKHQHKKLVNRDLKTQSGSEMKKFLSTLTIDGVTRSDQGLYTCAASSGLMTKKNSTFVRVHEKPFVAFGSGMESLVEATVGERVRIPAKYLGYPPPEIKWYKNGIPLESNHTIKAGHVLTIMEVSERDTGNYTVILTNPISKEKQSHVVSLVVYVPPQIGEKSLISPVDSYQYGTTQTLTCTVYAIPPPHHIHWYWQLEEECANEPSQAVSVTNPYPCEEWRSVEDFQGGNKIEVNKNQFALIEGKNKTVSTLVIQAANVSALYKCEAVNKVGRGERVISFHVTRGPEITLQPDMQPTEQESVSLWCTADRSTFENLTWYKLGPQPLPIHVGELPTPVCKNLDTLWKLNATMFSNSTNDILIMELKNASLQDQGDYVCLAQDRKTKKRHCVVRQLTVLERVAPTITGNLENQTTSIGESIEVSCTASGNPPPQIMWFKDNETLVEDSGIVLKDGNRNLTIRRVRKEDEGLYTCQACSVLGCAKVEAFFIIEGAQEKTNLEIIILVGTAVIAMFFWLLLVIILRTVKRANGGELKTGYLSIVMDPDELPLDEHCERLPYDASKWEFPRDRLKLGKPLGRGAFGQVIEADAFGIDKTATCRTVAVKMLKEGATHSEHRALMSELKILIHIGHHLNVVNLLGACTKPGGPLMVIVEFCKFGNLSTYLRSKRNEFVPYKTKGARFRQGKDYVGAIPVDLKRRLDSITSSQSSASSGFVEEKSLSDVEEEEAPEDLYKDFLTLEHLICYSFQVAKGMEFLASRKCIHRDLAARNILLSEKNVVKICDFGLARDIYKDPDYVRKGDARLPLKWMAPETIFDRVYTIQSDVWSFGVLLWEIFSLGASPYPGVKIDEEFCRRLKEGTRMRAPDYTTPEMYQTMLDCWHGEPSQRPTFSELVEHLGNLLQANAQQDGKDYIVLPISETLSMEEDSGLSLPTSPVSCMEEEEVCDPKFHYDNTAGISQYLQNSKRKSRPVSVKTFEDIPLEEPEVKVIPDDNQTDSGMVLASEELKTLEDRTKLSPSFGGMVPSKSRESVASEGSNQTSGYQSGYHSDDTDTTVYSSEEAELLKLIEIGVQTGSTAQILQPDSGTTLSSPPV
Protocol: A standard cell-based assay for VEGFR2 kinase activity can be used to test compounds of this invention and to identify VEGFR2 antagonists.
Specifically, a compound to be tested was first dissolved in DMSO to a concentration of 10 mM and stored at −20° C. The activity of VEGFR2 in cells depends on the phosphorylation level at its intracellular domain induced by the ligand. In order to express VEGFR2 in the cells, full length VEGFR2 sequence was cloned into PC-DNA3.1 vector, the plasmid was then transfected into CHO cells. After 48 hours, the expression of VEGFR2 in transfected CHO cells was confirmed by regular western blotting.
To screen the compounds of this invention, the ELISA kit (R&D Systems) was used. One day before the screening, CHO cells transfected with full length VEGFR2 plasmid were grown in DMEM medium without the presence of serum. On the day of screening, various concentrations of compounds (From 0.5 nM to 500 nM) were added into DMEM medium. Two hours later, 20% of FBS (Fetal Bovine Serum) was added into the medium to stimulate the production of phosphor-VEGFR2. Cell lysate from approximately 5×10^5 transfected CHO cells were reacted with anti-phosphor-VEGFR2 or anti-total VEGFR2 antibody in 96 well plates. In the presence of detection antibody, the phosphor-VEGFR2 or total VEGFR2 were detected with Streptavidin-HRP (R&D Systems) followed by chemiluminescence detection.

c-Met = molecular target: T2, c-Met (Homo sapiens, UniProt P08581); assay: c-Met cell-based assay (phospho-c-Met ELISA, A549 cells); settings: compound at 100 nM
T2 construct: endogenous in cells; host or cells: A549 cells
T2 sequence (P08581 25-1390): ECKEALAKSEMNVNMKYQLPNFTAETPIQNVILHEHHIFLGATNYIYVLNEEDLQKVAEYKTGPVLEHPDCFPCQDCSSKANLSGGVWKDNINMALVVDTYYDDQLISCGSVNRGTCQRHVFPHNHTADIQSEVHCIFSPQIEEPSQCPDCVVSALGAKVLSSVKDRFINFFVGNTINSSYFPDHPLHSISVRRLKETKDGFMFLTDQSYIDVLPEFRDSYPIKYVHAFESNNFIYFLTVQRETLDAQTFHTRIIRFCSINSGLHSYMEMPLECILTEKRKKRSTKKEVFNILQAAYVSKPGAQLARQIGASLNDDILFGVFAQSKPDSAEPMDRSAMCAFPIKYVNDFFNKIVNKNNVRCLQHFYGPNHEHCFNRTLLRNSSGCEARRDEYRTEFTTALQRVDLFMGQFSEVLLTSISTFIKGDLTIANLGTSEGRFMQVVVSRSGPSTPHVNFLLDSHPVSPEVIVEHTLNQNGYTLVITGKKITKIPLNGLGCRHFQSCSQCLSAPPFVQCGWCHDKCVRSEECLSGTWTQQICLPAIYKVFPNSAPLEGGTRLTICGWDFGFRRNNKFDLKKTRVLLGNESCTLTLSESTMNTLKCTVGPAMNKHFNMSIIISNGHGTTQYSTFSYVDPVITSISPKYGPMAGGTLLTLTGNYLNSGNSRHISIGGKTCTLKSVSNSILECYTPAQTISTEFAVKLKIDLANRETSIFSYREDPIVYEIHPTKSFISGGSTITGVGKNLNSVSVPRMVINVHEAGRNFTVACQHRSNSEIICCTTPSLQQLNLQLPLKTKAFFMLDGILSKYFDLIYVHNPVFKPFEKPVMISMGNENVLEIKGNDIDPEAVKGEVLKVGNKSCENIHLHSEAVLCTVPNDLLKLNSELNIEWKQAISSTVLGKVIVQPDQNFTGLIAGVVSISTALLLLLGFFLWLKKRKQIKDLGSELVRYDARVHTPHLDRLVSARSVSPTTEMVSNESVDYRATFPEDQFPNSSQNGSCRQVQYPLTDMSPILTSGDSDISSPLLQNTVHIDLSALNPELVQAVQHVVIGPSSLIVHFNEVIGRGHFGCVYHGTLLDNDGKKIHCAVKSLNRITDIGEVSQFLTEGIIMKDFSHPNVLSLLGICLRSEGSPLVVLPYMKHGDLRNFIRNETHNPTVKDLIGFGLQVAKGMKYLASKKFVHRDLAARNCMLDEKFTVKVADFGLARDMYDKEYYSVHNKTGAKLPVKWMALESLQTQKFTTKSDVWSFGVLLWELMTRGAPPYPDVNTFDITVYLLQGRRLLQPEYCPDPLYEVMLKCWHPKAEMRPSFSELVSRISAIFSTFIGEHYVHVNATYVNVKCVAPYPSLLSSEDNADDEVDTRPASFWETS
Protocol: A procedure for standard cell-based assay for c-Met kinase activity can be used to test compounds of this invention for their inhibitory effect on this kinase and to identify c-Met antagonists.
Specifically, a compound to be tested was first dissolved in DMSO to a concentration of 10 mM and stored at −20° C. The activity of c-Met in cells depends on the phosphorylation level at its intracellular domain induced by its ligand, Hepatocyte growth factor (HGF). In order to induce the cells to produce phosphate c-Met, paracrine HGF-dependent NSCLC (None Small Cell Lung Cancer) A549 cells were grown in DMEM with 10% FBS.
To screen compounds of this invention for their inhibitory effect on c-Met kinase, the ELISA kit (R&D Systems) was used. One day before screening procedure, A549 cells were grown in DMEM without the presence of serum. On the day of screening procedure, various concentrations of compounds (from 0.5 nM to 500 nM) were added into the culture medium. Two hours later, 20% of FBS (Fetal Bovine Serum) was added into the medium to stimulate the expression of phosphor-c-Met. After 20 minutes, cell lysate from approximately 5×10^5 A549 cells were reacted with anti-phosphor-c-Met or anti total c-Met antibody in 96 well plates. In the presence of detection antibody, the phosphor-c-Met or total c-Met can be detected with Streptavidin-HRP (R&D Systems) followed by chemiluminescence detection.

Compound	remaining activity at 0.1 µM (VEGFR2)	% c-Met kinase activity remains (c-Met)
Cl.O=C(Nc1ccccc1F)Nc1cccc2c1ccn2Cc1c[nH]c2ncccc12 [Example 5, 1-(2-Fluorophenyl)-3-[1-(1H-pyrrolo[2,3-b]pyridin-3-ylmethyl)-1H-indol-4-yl]urea hydrochloride]	≥ 70%	A (the percentage of kinase activity remains is below 70%)
Cl.O=C(Nc1cccc(F)c1)Nc1cccc2c1ccn2Cc1c[nH]c2ncccc12 [Example 6, 1-(3-Fluorophenyl)-3-[1-(1H-pyrrolo[2,3-b]pyridin-3-ylmethyl)-1H-indol-4-yl]urea hydrochloride]	< 70%	B (the percentage is greater or equal to 70%)
Cl.O=C(Nc1ccc(F)cc1)Nc1cccc2c1ccn2Cc1c[nH]c2ncccc12 [Example 7, 1-(4-Fluorophenyl)-3-[1-(1H-pyrrolo[2,3-b]pyridin-3-ylmethyl)-1H-indol-4-yl]urea hydrochloride]	< 70%	A (the percentage of kinase activity remains is below 70%)
O=C(Nc1ccccc1Cl)Nc1cccc2c1ccn2Cc1c[nH]c2ncccc12 [Example 8, 1-(2-Chlorophenyl)-3-[1-(1H-pyrrolo[2,3-b]pyridin-3-ylmethyl)-1H-indol-4-yl]urea hydrochloride]	≥ 70%	A (the percentage of kinase activity remains is below 70%)
O=C(Nc1cccc(Cl)c1)Nc1cccc2c1ccn2Cc1c[nH]c2ncccc12 [Example 9, 1-(3-Chlorophenyl)-3-[1-(1H-pyrrolo[2,3-b]pyridin-3-ylmethyl)-1H-indol-4-yl]urea hydrochloride]	< 70%	B (the percentage is greater or equal to 70%)
Cl.O=C(Nc1ccccc1Br)Nc1cccc2c1ccn2Cc1c[nH]c2ncccc12 [Example 11, 1-(2-Bromophenyl)-3-[1-(1H-pyrrolo[2,3-b]pyridin-3-ylmethyl)-1H-indol-4-yl]urea hydrochloride]	≥ 70%	A (the percentage of kinase activity remains is below 70%)
Cc1ccccc1NC(=O)Nc1cccc2c1ccn2Cc1c[nH]c2ncccc12.Cl [Example 14, 1-(2-Methylphenyl)-3-[1-(1H-pyrrolo[2,3-b]pyridin-3-ylmethyl)-1H-indol-4-yl]urea hydrochloride]	< 70%	A (the percentage of kinase activity remains is below 70%)
Cc1cccc(NC(=O)Nc2cccc3c2ccn3Cc2c[nH]c3ncccc23)c1.Cl [Example 15, 1-(3-Methylphenyl)-3-[1-(1H-pyrrolo[2,3-b]pyridin-3-ylmethyl)-1H-indol-4-yl]urea hydrochloride]	< 70%	A (the percentage of kinase activity remains is below 70%)
Cc1ccc(NC(=O)Nc2cccc3c2ccn3Cc2c[nH]c3ncccc23)cc1.Cl [Example 16, 1-(4-Methylphenyl)-3-[1-(1H-pyrrolo[2,3-b]pyridin-3-ylmethyl)-1H-indol-4-yl]urea hydrochloride]	≥ 70%	A (the percentage of kinase activity remains is below 70%)
COc1ccccc1NC(=O)Nc1cccc2c1ccn2Cc1c[nH]c2ncccc12.Cl [Example 17, 1-(2-Methoxyphenyl)-3-[1-(1H-pyrrolo[2,3-b]pyridin-3-ylmethyl)-1H-indol-4-yl]urea hydrochloride]	< 70%	A (the percentage of kinase activity remains is below 70%)
COc1cccc(NC(=O)Nc2cccc3c2ccn3Cc2c[nH]c3ncccc23)c1.Cl [Example 18, 1-(3-Methoxyphenyl)-3-[1-(1H-pyrrolo[2,3-b]pyridin-3-ylmethyl)-1H-indol-4-yl]urea hydrochloride]	< 70%	A (the percentage of kinase activity remains is below 70%)

Further lines, with some results ahead:

remaining activity at 0.1 µM (VEGFR2)	Compound	% c-Met kinase activity remains (c-Met)
< 70%	COc1ccc(NC(=O)Nc2cccc3c2ccn3Cc2c[nH]c3ncccc23)cc1.Cl [Example 19, 1-(4-Methoxyphenyl)-3-[1-(1H-pyrrolo[2,3-b]pyridin-3-ylmethyl)-1H-indol-4-yl]urea hydrochloride]	A (the percentage of kinase activity remains is below 70%)
< 70%	Cl.O=C(Nc1ccccc1OC(F)(F)F)Nc1cccc2c1ccn2Cc1c[nH]c2ncccc12 [Example 20, 1-(2-Trifluoromethoxyphenyl)-3-[1-(1H-pyrrolo[2,3-b]pyridin-3-ylmethyl)-1H-indol-4-yl]urea hydrochloride]	A (the percentage of kinase activity remains is below 70%)
< 70%	Cl.O=C(Nc1ccccc1C(F)(F)F)Nc1cccc2c1ccn2Cc1c[nH]c2ncccc12 [Example 23, 1-(2-Trifluoromethylphenyl)-3-[1-(1H-pyrrolo[2,3-b]pyridin-3-ylmethyl)-1H-indol-4-yl]urea hydrochloride]	A (the percentage of kinase activity remains is below 70%)
< 70%	Cl.O=C(Nc1cccc(C(F)(F)F)c1)Nc1cccc2c1ccn2Cc1c[nH]c2ncccc12 [Example 24, 1-(3-Trifluoromethylphenyl)-3-[1-(1H-pyrrolo[2,3-b]pyridin-3-ylmethyl)-1H-indol-4-yl]urea hydrochloride]	A (the percentage of kinase activity remains is below 70%)
≥ 70%	Cl.O=C(Nc1ccc(C(F)(F)F)cc1)Nc1cccc2c1ccn2Cc1c[nH]c2ncccc12 [Example 25, 1-(4-Trifluoromethylphenyl)-3-[1-(1H-pyrrolo[2,3-b]pyridin-3-ylmethyl)-1H-indol-4-yl]urea hydrochloride]	A (the percentage of kinase activity remains is below 70%)
≥ 70%	Cl.N#Cc1cccc(NC(=O)Nc2cccc3c2ccn3Cc2c[nH]c3ncccc23)c1 [Example 26, 1-(3-Cyanophenyl)-3-[1-(1H-pyrrolo[2,3-b]pyridin-3-ylmethyl)-1H-indol-4-yl]urea hydrochloride]	A (the percentage of kinase activity remains is below 70%)
< 70%	Cl.N#Cc1ccc(NC(=O)Nc2cccc3c2ccn3Cc2c[nH]c3ncccc23)cc1 [Example 27, 1-(4-Cyanophenyl)-3-[1-(1H-pyrrolo[2,3-b]pyridin-3-ylmethyl)-1H-indol-4-yl]urea hydrochloride]	A (the percentage of kinase activity remains is below 70%)
< 70%	Cl.O=C(Nc1ccccc1)Nc1cccc2c1ccn2Cc1ccnc2[nH]ccc12 [Example 33, 1-Phenyl-3-[1-(1H-pyrrolo[2,3-b]pyridin-4-ylmethyl)-1H-indol-4-yl]urea hydrochloride]	B (the percentage is greater or equal to 70%)
< 70%	Cl.O=C(Nc1ccccc1F)Nc1cccc2c1ccn2Cc1ccnc2[nH]ccc12 [Example 34, 1-(2-Fluorophenyl)-3-[1-(1H-pyrrolo[2,3-b]pyridin-4-ylmethyl)-1H-indol-4-yl]urea hydrochloride]	B (the percentage is greater or equal to 70%)
